In ChEMBL document CHEMBL3868595, “Plazomicin is effective in a non-human primate pneumonic plague model” (Bioorg Med Chem, 2016):

What was measured:
[1] = Volume of distribution at steady state in African green monkey blood at 35 mg/kg administered as iv infusion twice daily for 7 consecutive days measured on day 1 by LC-MS/MS analysis; format: ADME, organism-based; settings: chlorocebus aethiops, read-out: Vdss
[2] = system: Yersinia pestis; experiment: (§1) Antibacterial activity against Yersinia pestis Colorado 92 infected in African green monkey C2149 model assessed as bacterial burden in tracheobronchial lymph nodes at 6.25 mg/kg, iv administered within 6 hrs post onset of sustained fever as 30 mins infusion for 5 days (reference value: 7.7 10^9CFU/g); format: functional, CO92, Lymph node
[3] = Volume of distribution at steady state in African green monkey blood at 25 mg/kg administered as iv infusion twice daily for 7 consecutive days measured on day 1 by LC-MS/MS analysis; format: ADME, organism-based; settings: chlorocebus aethiops, read-out: Vdss
[4] = system: Yersinia pestis; experiment: Antibacterial activity against Yersinia pestis Colorado 92 infected in African green monkey B6873 model assessed as bacterial burden in spleen at 12.5 mg/kg, iv administered within 6 hrs post onset of sustained fever as 30 mins infusion for 5 days (reference value: 1.6 10^9CFU/g); format: functional, organism-based; settings: CO92
[5] = system: African green monkey; experiment: Toxicity in African green monkey 7643 model infected with Yersinia pestis Colorado 92 assessed as serum lactate dehydrogenase level at 25 mg/kg, iv administered within 6 hrs post onset of sustained fever as 30 mins infusion for 10 days (reference value: 278 IU/L); format: organism-based; settings: chlorocebus sabaeus, in vivo
[6] = system: Yersinia pestis; experiment: Antibacterial activity against Yersinia pestis Colorado 92 infected in African green monkey B6783 model assessed as bacterial burden in lung at 12.5 mg/kg, iv administered within 6 hrs post onset of sustained fever as 30 mins infusion for 5 days (reference value: 7.7 10^8CFU/g); format: functional, CO92
[7] = system: Yersinia pestis; experiment: Antibacterial activity against Yersinia pestis Colorado 92 infected in African green monkey B6889 model assessed as bacterial burden in lung at 6.25 mg/kg, iv administered within 6 hrs post onset of sustained fever as 30 mins infusion for 5 days (reference value: 7.7 10^8CFU/g); format: functional, CO92
[8] = Clearance in African green monkey blood at 25 mg/kg administered as iv infusion twice daily for 7 consecutive days measured on day 1 by LC-MS/MS analysis; format: ADME, organism-based; settings: chlorocebus aethiops
[9] = system: African green monkey; experiment: Toxicity in African green monkey assessed as effect on serum creatinine level at 35 mg/kg administered as iv infusion twice daily for 7 consecutive days measured on day 1 by LC-MS/MS analysis; format: organism-based; settings: chlorocebus sabaeus, in vivo
[10] = system: Yersinia pestis; experiment: Antibacterial activity against Yersinia pestis Colorado 92 infected in African green monkey B6861 model assessed as bacterial burden in spleen at 6.25 mg/kg, iv administered within 6 hrs post onset of sustained fever as 30 mins infusion for 5 days (reference value: 1.6 10^9CFU/g); format: functional, CO92
[11] = system: African green monkey; experiment: Toxicity in African green monkey B6127 model infected with Yersinia pestis Colorado 92 assessed as stomach ulcer at 25 mg/kg, iv administered within 6 hrs post onset of sustained fever as 30 mins infusion for 10 days measured by hematoxylin staining based assay; format: organism-based; settings: chlorocebus sabaeus, in vivo
[12] = system: African green monkey; experiment: Toxicity in African green monkey B6291 model infected with Yersinia pestis Colorado 92 assessed as blood urea nitrogen level at 25 mg/kg, iv administered within 6 hrs post onset of sustained fever as 30 mins infusion for 10 days (reference value: 24 mg/dl); format: organism-based; settings: chlorocebus sabaeus, in vivo
[13] = system: Yersinia pestis; experiment: Antibacterial activity against Yersinia pestis Colorado 92 infected in African green monkey 8047 model assessed as bacterial burden in heart at 6.25 mg/kg, iv administered within 6 hrs post onset of sustained fever as 30 mins infusion for 10 days (reference value: 2.6 10^7CFU/g); format: functional, CO92
[14] = system: Yersinia pestis; experiment: Antibacterial activity against Yersinia pestis Colorado 92 infected in African green monkey C2083 model assessed as bacterial burden in liver at 12.5 mg/kg, iv administered within 6 hrs post onset of sustained fever as 30 mins infusion for 5 days (reference value: 5.2 10^8CFU/g); format: functional, CO92
[15] = system: Yersinia pestis; experiment: Antibacterial activity against Yersinia pestis Colorado 92 infected in African green monkey B6988 model assessed as bacterial burden in kidney at 6.25 mg/kg, iv administered within 6 hrs post onset of sustained fever as 30 mins infusion for 5 days (reference value: 7.1 10^7CFU/g); format: functional, CO92
[16] = system: Yersinia pestis; experiment: Antibacterial activity against Yersinia pestis Colorado 92 infected in African green monkey B6873 model assessed as bacterial burden in blood at 12.5 mg/kg, iv administered within 6 hrs post onset of sustained fever as 30 mins infusion for 5 days (reference value: 1.2 10^7CFU/ml); format: functional, organism-based; settings: CO92
[17] = system: African green monkey; experiment: Toxicity in African green monkey B5994 model infected with Yersinia pestis Colorado 92 assessed as serum creatinine level at 25 mg/kg, iv administered within 6 hrs post onset of sustained fever as 30 mins infusion for 10 days (reference value: 0.6 mg/dl); format: organism-based; settings: chlorocebus sabaeus, in vivo
[18] = Toxicity in African green monkey B6428 model infected with Yersinia pestis Colorado 92 assessed as total white blood cell count at 25 mg/kg, iv administered within 6 hrs post onset of sustained fever as 30 mins infusion for 10 days (reference value: 6.2 10^3/microL); format: organism-based; settings: chlorocebus aethiops, in vivo
[19] = system: African green monkey; experiment: Toxicity in African green monkey 7643 model infected with Yersinia pestis Colorado 92 assessed as serum alanine aminotransferase level at 25 mg/kg, iv administered within 6 hrs post onset of sustained fever as 30 mins infusion for 10 days (reference value: 53 IU/L); format: organism-based; settings: chlorocebus sabaeus, in vivo
[20] = system: Yersinia pestis; experiment: as §1, with “monkey 8047” for “monkey C2149”, “for 10” for “for 5”; format: functional, CO92, Lymph node
[21] = system: African green monkey; experiment: Toxicity in African green monkey 7643 model infected with Yersinia pestis Colorado 92 assessed as serum creatinine level at 25 mg/kg, iv administered within 6 hrs post onset of sustained fever as 30 mins infusion for 10 days (reference value: 0.5 mg/dl); format: organism-based; settings: chlorocebus sabaeus, in vivo
[22] = system: African green monkey; experiment: Toxicity in African green monkey B6291 model infected with Yersinia pestis Colorado 92 assessed as serum alanine aminotransferase level at 25 mg/kg, iv administered within 6 hrs post onset of sustained fever as 30 mins infusion for 10 days (reference value: 47 IU/L); format: organism-based; settings: chlorocebus sabaeus, in vivo
[23] = system: Yersinia pestis; experiment: Antibacterial activity against Yersinia pestis Colorado 92 infected in African green monkey C2083 model assessed as bacterial burden in blood at 12.5 mg/kg, iv administered within 6 hrs post onset of sustained fever as 30 mins infusion for 5 days (reference value: 1.2 10^7CFU/ml); format: functional, CO92
[24] = system: African green monkey; experiment: Toxicity in African green monkey B5994 model infected with Yersinia pestis Colorado 92 assessed as serum alanine aminotransferase level at 25 mg/kg, iv administered within 6 hrs post onset of sustained fever as 30 mins infusion for 10 days (reference value: 62 IU/L); format: organism-based; settings: chlorocebus sabaeus, in vivo
[25] = Clearance in African green monkey blood at 35 mg/kg administered as iv infusion twice daily for 7 consecutive days measured on day 7 by LC-MS/MS analysis; format: ADME, organism-based; settings: chlorocebus aethiops
[26] = system: African green monkey; experiment: Toxicity in African green monkey B5994 model infected with Yersinia pestis Colorado 92 assessed as blood urea nitrogen level at 25 mg/kg, iv administered within 6 hrs post onset of sustained fever as 30 mins infusion for 10 days (reference value: 15 mg/dl); format: organism-based; settings: chlorocebus sabaeus, in vivo
[27] = system: African green monkey; experiment: Toxicity in African green monkey 7653 model infected with Yersinia pestis Colorado 92 assessed as serum gamma glutamyl-transferase level at 25 mg/kg, iv administered within 6 hrs post onset of sustained fever as 30 mins infusion for 10 days (reference value: 37 IU/L); format: organism-based; settings: chlorocebus sabaeus, in vivo

CN[C@@H]1[C@@H](O)[C@@H](O[C@@H]2[C@@H](O)[C@H](O[C@H]3OC(CNCCO)=CC[C@H]3N)[C@@H](N)C[C@H]2NC(=O)[C@@H](O)CCN)OC[C@]1(C)O [PLAZOMICIN]
Vd [1]: 0.26 L/kg | Activity [2]: 1 ×10⁹ CFU/g | Vd [3]: 0.33 L/kg | Activity [4]: Below limit of detection | Activity [5]: 606 IU/L | Activity [6]: 2.8 ×10⁹ CFU/g | Activity [7]: 2.2 ×10⁹ CFU/g | clearance [8]: 2.17 mL/min/kg | Activity [9]: 0.6 mg/dL | Activity [10]: 95 CFU/g | Activity [11]: Toxic | Activity [12]: 21 mg/dL | Activity [13]: 2 ×10⁷ CFU/g | Activity [14]: 4.5 ×10⁹ CFU/g | Activity [15]: 23 CFU/g | Activity [16]: Below limit of detection | Activity [17]: 0.5 mg/dL | Activity [18]: 6 ×10³ /uL | Activity [19]: 43 IU/L | Activity [20]: 2 ×10⁹ CFU/g | Activity [21]: 0.4 mg/dL | Activity [22]: 68 IU/L | Activity [23]: 24 CFU/ml | Activity [24]: 46 IU/L | clearance [25]: 1.67 mL/min/kg | Activity [26]: 18 mg/dL | Activity [27]: 27 IU/L
